From US20240181005A1, “COMPOSITIONS, SYSTEMS, AND METHODS FOR GENERATING GENE-EDITED CELLS” (CellScript, LLC, priority 2020, published 2024)

What was measured:
HSPCs [1] = assay: Innate immune, transcriptional and toxicity response of HSPCs to the mRNAs during gene editing
XMEN CD34^+ HSPCs [2] = assay: Targeted insertion (TI) of MAGT1 cDNA by ddPCR in gene-edited CD34+ HSPCs; format: cell-based, human; settings: ddPCR 48-72 h post-EP, input pre-transplant
Source text: (A) Location of the 10 candidate sgRNAs targeting MAGT1 gene transcription start site (TSS). Each sgRNA (sg) is represented as a 20-bp sequence (light grey or green) associated with the 3-bp PAM sequence (darker color). (B) Evaluation of the percentage of cutting activity by TIDE assay after gDNA extraction from untreated versus Cas9/sgRNA treated HD CD34+ cells at 2-5 days post electroporation, sequencing of Exon 1 and comparison of the sequences using TIDE software (n=1-5 independent experiments). (C) Design of the rAAV6-MAGT1 donor. (D) Molecular analysis showing the percentage of targeted insertion in gene-edited XMEN CD34+ cells using gene editing enhancers as described. gDNA was extracted at 48 h-72 h post-EP and insertion of the MAGT1 cDNA donor was quantified by ddPCR (n=3-11 independent experiments). (E) Viability determined by blue trypan exclusion in untreated Naive and AAV-MAGT1-treated XMEN HSPCs at day 2 post-EP (n=1-7 independent experiments). (F) Representative analysis of the phenotype of CD34+ cells at day 2 post-EP. […]
(§1) Targeted insertion (TI) of MAGT1 cDNA was quantified by digital droplet PCR (ddPCR) using one primer located upstream of the LHA (5′-[…]−3′, SEQ ID NO:42) the second primer (5′-[…]-3′, SEQ ID NO:43) inside the cDNA and a probe (5′-[…]-3′, SEQ ID NO:44).

[3] = test system: NK cells (CD3-CD56^+) differentiated from XMEN CD34^+ HSPCs; assay: In vitro NK cell differentiation from gene-edited CD34+ cells: NKG2D expression and TI; format: cell-based, human
Source text: (B) Dot plot showing the gating for NK cells (CD3-CD56+) and NKG2D expression after 35 days of in vitro NK cell differentiation from CD34+ cells; histogram on the right showing the percentage of CD34-derived NK cells in each condition (n=2-8 independent experiments). (C) NKG2D expression and (D) targeted integration in NK cells at day 35 of in vitro differentiation (n=2-8 independent experiments). (E) Cytotoxic activity of CD34+-differentiated NK cells against K562 cells at an E:T ratio of 2:1 (n=1-7 independent experiments). For all the graphs, data are shown as mean±SD; *p<0.05, *p<0.01, ***p<0.001, ****p<0.0001. (F) Correlation between the NKG2D expression (%) and the killing activity (%) in NK cells at day 35 was calculated using Spearman's correlation coefficient and two-tailed p-value (n=21 samples).
CD34^+ HSPCs were differentiated into NK cells in vitro using a protocol adapted from (47). 200,000 CD34^+ cells were resuspended in IMDM supplemented with 20% FBS and 50 μM BME containing 5 ng/mL rhIL-3 (first week only), 10 ng/mL IL-15, 20 ng/mL IL-7, 20 ng/mL SCF, 10 ng/mL Flt3L and 100 U/mL IL2 for 35 days. […]
as §1

HSPCs [4] = settings: HSPCs from patients with CGD, SCD, SCID-X1; cited from earlier work
XMEN CD34^+ HSPCs [5] = assay: Viability of gene-edited CD34+ HSPCs by trypan blue exclusion; format: cell-based, human; settings: day 2 post-EP
Source text: (A) Location of the 10 candidate sgRNAs targeting MAGT1 gene transcription start site (TSS). Each sgRNA (sg) is represented as a 20-bp sequence (light grey or green) associated with the 3-bp PAM sequence (darker color). (B) Evaluation of the percentage of cutting activity by TIDE assay after gDNA extraction from untreated versus Cas9/sgRNA treated HD CD34+ cells at 2-5 days post electroporation, sequencing of Exon 1 and comparison of the sequences using TIDE software (n=1-5 independent experiments). (C) Design of the rAAV6-MAGT1 donor. (D) Molecular analysis showing the percentage of targeted insertion in gene-edited XMEN CD34+ cells using gene editing enhancers as described. gDNA was extracted at 48 h-72 h post-EP and insertion of the MAGT1 cDNA donor was quantified by ddPCR (n=3-11 independent experiments). (E) Viability determined by blue trypan exclusion in untreated Naive and AAV-MAGT1-treated XMEN HSPCs at day 2 post-EP (n=1-7 independent experiments). (F) Representative analysis of the phenotype of CD34+ cells at day 2 post-EP. For all the graphs, data are shown as mean±standard deviation (SD); ANOVA one-way test and Tukey's post hoc multiple comparisons test, *p<0.05, *p<0.01, ***p<0.001, ****p<0.0001.
Cryopreserved CD34^+ HSPCs were thawed (day 0) and cultured in StemSpan SFEM II medium (STEMCELL™ Technologies) supplemented with 100 ng/mL stem cell factor (SCF), Flt3 ligand, thrombopoietin (Peprotech), 0.75 μM of StemRegenin-1 (STEMCELL™ Technologies) and 35 nM of UM171 (STEMCELL™ Technologies) for 2 days (37). […] At 48 h post-EP, the cells were harvested and counted by hemocytometer with trypan blue to determine viability before their use for molecular analysis, phenotypic analysis by flow cytometry, CFU assay, T or NK cell differentiation or cryopreservation for transplant studies.

[6] = test system: NSGS immunodeficient mice; assay: Transplantation of gene-edited XMEN CD34+ HSPCs into NSGS mice; format: in vivo, mouse; settings: for post-transplant TI: ddPCR, human CD45+ cells from bone marrow, week 16
Source text: (A) Human engraftment measured by the presence of human CD45^+ cells by flow cytometry at week 16 in the peripheral blood, bone marrow, spleen and thymus of NSGS mice transplanted with HD (n=5 mice), untreated (n=12) or gene-edited XMEN CD34^+ HSCs (n=1 (−i53), n=8 (+i53), n=18 (+i53^+ GSE-CS56)). The dotted line indicates the threshold for engraftment at 0.2% hCD45^+ cells in the bone marrow. (B) Percentage of human engraftment (hCD45^+) measured after injection of XMEN HSPCs gene edited with increasing Multiplicity of Infection (MOIs) of AAV, in presence of i53 alone or i53 and GSE-CS56. (C) Immunophenotypic analysis of bone marrow at 16 weeks post-transplant by flow cytometry showing the percentages of CD34^+ cells, myeloid (CD33^+), lymphoid B (CD19^+) and T (CD3^+) after gating on the hCD45^+ population. (D and E) Restoration of NKG2D expression in NK cells from the spleen (D) and CD8^+ T cells from the peripheral blood, spleen and thymus (E) at week 16 post-transplant. For all the graphs, data are shown as mean±SD. (F and G) Targeted insertion quantified by ddPCR in human CD45^+ cells isolated from the bone marrow after gene editing with i53 (orange bar) or with i53 and GSE-CS56 (green bar) (F); or in the lymphoid T (CD3), myeloid (CD33/CD14) and lymphoid B (CD19) cells sorted from the spleen (G).
The use of triple transgenic immunodeficient mice NOD.Cg-Prkd^scid Il2rg^tm1Wjl Tg (NSG-SGM3 or NSGS) expressing human IL3, GM-CSF and SCF cytokines (30) (Stock No: 013062; The Jackson Laboratory) for transplantation studies was approved by NIAID Institutional Animal Care and Use Committee under the animal use protocol LCIM-1E. The conduct of these studies conforms to AAALAC International guidelines and all US federal regulations required for protection of research animals. Newborn mice (0-4 days old) were irradiated at 100 cGy and immediately intrahepatically injected (courtesy of Mara Pavel-Dinu) with 1-1.5×10^6 viable CD34^+ cells per mouse. Peripheral blood from tail vein was analyzed at weeks 12 and 16 after transplantation. At 16 weeks, mice were sacrificed, and bone marrow, spleen and thymus were harvested for analysis of engraftment, sorting or gDNA extraction as indicated. […]
as §1

53BP1 = target: T1, 53BP1 (Homo sapiens, UniProt Q12888); settings: blocking 53BP1 tudor domain binding to H4K20me2; cited from earlier work
T1 construct: endogenous in cells

CD34^+ HSPCs = assay: CFSE proliferation assay; format: cell-based, human; settings: CFSE stain day 1 post EP, flow cytometry day 6
Source text: (A) Optimization of cutting activity (% indels) of various forms of Cas9 mRNA and at increasing concentration. Commercial Cas9 mRNA (MaxCyte, Mx) is used as control. (B) Evaluation of the glycerol concentration in the EP mix on viability and cutting activity at day 2 post EP. (C) Representative dot plots showing the immunophenotype analysis of HSPCs by flow cytometry at day 2 post EP. (D) Hematopoietic potential evaluated by the CFU assay at day 2 post-EP; Number of CFU colonies were counted after 14 days. (E) Measure of the proliferation index after staining HD HSPCs at day 1 post EP with CFSE dye and analysis of the proliferation by flow cytometry at day 6 post EP.
The following day after EP, CD34^+ cells were stained with CellTrace™ CFSE kit per manufacturer's instructions (ThermoFisher Scientific) and analyzed by flow cytometry 5 days later. Determination of the proliferation index was done using FlowJo software.

T1 sequence (Q12888 whole entry, the tested form may be a part): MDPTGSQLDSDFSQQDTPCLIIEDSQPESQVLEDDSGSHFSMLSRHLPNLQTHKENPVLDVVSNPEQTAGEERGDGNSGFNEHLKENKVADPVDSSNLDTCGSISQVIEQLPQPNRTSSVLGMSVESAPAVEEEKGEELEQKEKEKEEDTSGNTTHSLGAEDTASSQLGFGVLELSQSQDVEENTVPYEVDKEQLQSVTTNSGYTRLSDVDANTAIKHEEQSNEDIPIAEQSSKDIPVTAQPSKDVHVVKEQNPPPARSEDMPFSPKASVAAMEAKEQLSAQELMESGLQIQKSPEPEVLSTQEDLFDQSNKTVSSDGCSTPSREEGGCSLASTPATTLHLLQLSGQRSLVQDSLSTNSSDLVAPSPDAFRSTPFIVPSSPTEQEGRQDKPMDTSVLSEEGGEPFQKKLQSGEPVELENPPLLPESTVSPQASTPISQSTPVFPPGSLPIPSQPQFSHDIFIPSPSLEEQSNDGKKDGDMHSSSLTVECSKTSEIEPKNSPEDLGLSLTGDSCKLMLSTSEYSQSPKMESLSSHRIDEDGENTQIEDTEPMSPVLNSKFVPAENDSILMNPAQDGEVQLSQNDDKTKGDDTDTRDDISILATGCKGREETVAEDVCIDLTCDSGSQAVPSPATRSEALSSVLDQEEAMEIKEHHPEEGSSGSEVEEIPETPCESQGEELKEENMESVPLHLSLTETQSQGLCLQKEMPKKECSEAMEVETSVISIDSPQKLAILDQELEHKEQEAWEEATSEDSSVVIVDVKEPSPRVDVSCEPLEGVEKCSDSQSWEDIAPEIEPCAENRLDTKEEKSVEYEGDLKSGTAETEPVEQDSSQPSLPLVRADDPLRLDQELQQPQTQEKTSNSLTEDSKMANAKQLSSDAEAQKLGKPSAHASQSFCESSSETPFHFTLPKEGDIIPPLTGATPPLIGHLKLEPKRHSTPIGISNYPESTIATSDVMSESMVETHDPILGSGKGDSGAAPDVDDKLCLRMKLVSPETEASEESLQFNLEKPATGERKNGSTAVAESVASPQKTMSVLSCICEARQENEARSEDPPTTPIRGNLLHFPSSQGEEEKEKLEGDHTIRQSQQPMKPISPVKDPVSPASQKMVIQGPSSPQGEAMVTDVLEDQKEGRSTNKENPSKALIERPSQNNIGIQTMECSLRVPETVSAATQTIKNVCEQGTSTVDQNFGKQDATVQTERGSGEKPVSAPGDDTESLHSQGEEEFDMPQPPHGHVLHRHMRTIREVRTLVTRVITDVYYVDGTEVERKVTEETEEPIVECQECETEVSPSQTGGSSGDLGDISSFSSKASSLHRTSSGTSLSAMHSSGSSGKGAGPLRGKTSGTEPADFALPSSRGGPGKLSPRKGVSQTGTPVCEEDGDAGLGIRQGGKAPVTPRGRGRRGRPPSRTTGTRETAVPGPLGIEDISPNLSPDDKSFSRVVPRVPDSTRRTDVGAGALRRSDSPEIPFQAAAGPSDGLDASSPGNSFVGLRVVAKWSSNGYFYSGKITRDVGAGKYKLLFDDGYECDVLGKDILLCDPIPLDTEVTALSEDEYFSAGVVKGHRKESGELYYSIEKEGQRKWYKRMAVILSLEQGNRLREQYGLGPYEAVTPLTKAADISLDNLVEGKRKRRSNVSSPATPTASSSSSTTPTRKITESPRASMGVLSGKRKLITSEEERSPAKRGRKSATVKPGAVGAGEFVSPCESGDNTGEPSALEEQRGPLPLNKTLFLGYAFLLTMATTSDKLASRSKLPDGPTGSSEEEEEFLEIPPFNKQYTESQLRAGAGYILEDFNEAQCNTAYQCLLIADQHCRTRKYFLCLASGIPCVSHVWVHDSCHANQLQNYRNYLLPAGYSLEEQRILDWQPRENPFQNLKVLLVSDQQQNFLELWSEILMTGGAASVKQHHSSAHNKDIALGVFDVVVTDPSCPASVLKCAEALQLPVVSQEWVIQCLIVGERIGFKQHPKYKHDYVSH

## i53 mRNA: pseudouridine-modified mRNA encoding i53, an inhibitor of 53BP1 (ubiquitin variant, SEQ ID NO:6)
HSPCs [1]
  upregulation of interferon or other cytokines or cellular stress genes, transcriptional repression, toxicity or loss of viability: not observed any significant upregulation
XMEN CD34^+ HSPCs [2]
  AAV-MAGT1 TI rates (targeted insertion): 50.0±18.2%
[3]; day 35 of culture
  NKG2D expression in in vitro differentiated NK cells: 26%
[3]; day 35 of in vitro differentiation, ddPCR
  molecular TI rates in NK cells: 34%
HSPCs [4]
  levels of HDR-mediated TI with AAV donors or gene correction with ssODN donors: above 60%
XMEN CD34^+ HSPCs [5]
  viability of GE CD34+ HSPCs: decreased after gene editing, independently of i53
[6]
  post-transplant TI: 54.5±18.3%
[6]; week 16, NSGS mice, bone marrow
  engraftment of human CD45+ cells in the BM: 11.03%

## i53 protein: ubiquitin variant (SEQ ID NO:2) of Canny et al. that binds the tandem tudor domain of 53BP1
53BP1
  increase of repair by HDR: about 2 fold

B1: GSE CS-56 mRNA: mRNA encoding a human TP53 genetic suppressor element, a dominant negative deletion mutant of TP53 (nucleic acid)
chain: GGGUAAUACAAGCUUGCUUGUUCUUUUUGCAGAAGCUCAGAAUAAACGCUCAACUUUGGCAGCCACCAUGGAUUGUCCUGGGAGAGACCGGCGCACAGAGGAAGAGAAUCUCCGCAAGAAAGGGGAGCCUCACCACGAGCUGCCCCCAGGGAGCACUAAGCGAGCACUGCCCAACAACACCAGCUCCUCUCCCCAGCCAAAGAAGAAACCACUGGAUGGAGAAUAUUUCACCCUUCAGAUCCGUGGGCGUGAGCGCUUCGAGAUGUUCCGAGAGCUGAAUGAGGCCUUGGAACUCAAGGAUGCCCAGGCUGGGAAGGAGCCAGGGGGGAGCAGGGCUCACUCCAGCCACCUGAAGUAGUGAUAUCACUAGUGACUGACUAGGAUCUGGUUACCACUAAACCAGCCUCAAGAACACCCGAAUGGAGUCUCUAAGCUACAUAAUACCAACUUACACUUUACAAAAUGUUGUCCCCCAAAAUGUAGCCAUUCGUAUCUGCUCCUAAUAAAAAGAAAGUUUCUUCACAUUCUGCUAGCUCUAG
modifications: pseudouridine; (1)..(539) U=Pseudouridine
HSPCs [1]
  upregulation of interferon or other cytokines or cellular stress genes, transcriptional repression, toxicity or loss of viability: not observed any significant upregulation
XMEN CD34^+ HSPCs [2]
  AAV-MAGT1 TI rates (targeted insertion): 62.3±18%
CD34^+ HSPCs
  proliferative capacity: better preserved
XMEN CD34^+ HSPCs [5]
  viability of GE CD34+ HSPCs: significantly increased
XMEN CD34^+ HSPCs [5]; listed as GSE-CS56 mRNA
  viability of GE CD34+ HSPCs: rescue the cell viability
[6]
  post-transplant TI: slightly improved
[6]; week 16 post-transplant, PB, spleen, thymus
  percentages of NKG2D-expressing CD8+ T cells: slightly improved
